For experiment [1], the target named is T1, GPR6 (Homo sapiens, UniProt P46095).
T1 construct: expressed in transfected cells; host or cells: CHO cells
Kind of experiment: GPR6 antagonist functional cAMP assay (LANCE Ultra cAMP TR-FRET, CHO cells stably expressing GPR6). The class given is cell-based. A digest of the protocol: (§1)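 Stable CHO-GPR6 or CHO-GPR3 cells (10,000/well) in Krebs-Ringer buffer with 0.1% BSA and 150 μM Ro 20-1724 were exposed to compounds for 45 min at 37° C (0.1% DMSO). cAMP read by LANCE Ultra TR-FRET; IC50 from 4-parameter fit normalized to DMSO and reference compounds.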

Experiment [2] addresses T2, GPR3 (Homo sapiens, UniProt P46089).
T2 construct: expressed in transfected cells; host or cells: CHO cells
Kind of experiment: GPR3 antagonist functional cAMP assay (LANCE Ultra cAMP TR-FRET, CHO cells stably expressing GPR3). The class given is cell-based. The method, boiled down: as §1

Where [3] appears, read: procedure as described in Example 24.
[4] abbreviates: CHO cells stably expressing GPR6, cAMP assay (Example 24).
The mark [5] stands for this setting: CHO cells stably expressing GPR3, cAMP assay (Example 24).
[6] abbreviates: CHO cells stably expressing GPR6, cAMP assay.
Setting [7] is: CHO cells stably expressing GPR3, cAMP assay.

A value given as a limit tells only on which side of the number the result lay.

Drawing on US20260042755A1, “GPR6 INVERSE AGONISTS” (MapLight Therapeutics, Inc., priority 2022, published 2026), this text covers IC50 for 26 compounds.

T1 sequence (P46095 whole entry): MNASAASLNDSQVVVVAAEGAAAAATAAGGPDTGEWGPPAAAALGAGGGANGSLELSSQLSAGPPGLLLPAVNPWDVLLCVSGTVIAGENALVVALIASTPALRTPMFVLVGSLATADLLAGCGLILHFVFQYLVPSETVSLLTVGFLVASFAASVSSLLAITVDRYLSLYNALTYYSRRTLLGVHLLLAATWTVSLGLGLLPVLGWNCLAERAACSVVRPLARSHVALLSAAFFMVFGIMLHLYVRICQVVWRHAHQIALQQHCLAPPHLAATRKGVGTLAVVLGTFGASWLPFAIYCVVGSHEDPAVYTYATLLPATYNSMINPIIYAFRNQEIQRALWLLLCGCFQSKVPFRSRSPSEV
T2 sequence (P46089 whole entry, species assumed): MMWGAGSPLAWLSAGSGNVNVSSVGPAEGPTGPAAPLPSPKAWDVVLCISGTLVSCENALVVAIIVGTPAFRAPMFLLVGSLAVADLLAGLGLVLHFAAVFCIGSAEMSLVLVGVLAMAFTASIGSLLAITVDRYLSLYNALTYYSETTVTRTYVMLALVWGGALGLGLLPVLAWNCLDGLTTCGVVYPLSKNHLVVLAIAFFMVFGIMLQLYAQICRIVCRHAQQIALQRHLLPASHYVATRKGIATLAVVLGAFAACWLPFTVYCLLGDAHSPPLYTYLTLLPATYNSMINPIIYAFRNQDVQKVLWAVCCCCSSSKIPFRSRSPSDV

`CC(C)(O)C(=O)N1CCc2nc(N3CCC(Oc4ccc(F)cc4F)CC3)c(-c3ccc(F)c(N)n3)nc2C1` [Compound 639, 1-{3-(6-amino-5-fluoro-2-pyridyl)-2-[4-(2,4-difluorophenoxy)-1-piperidyl]-5,6,7,8-tetrahydro-1,4,6-triaza-6-naphthyl}-2-hydroxy-2-methyl-1-propanone]: the IC50 in experiment [1] (procedure of Example 24) and in experiment [2] (procedure of Example 24) was 100 to 1000 nM throughout.

Consider `CC(C)(O)[C@](C)(O)c1cc2nc(-c3cnn(CF)c3)c(N3CCN(Cc4ccc(F)cc4F)CC3)nc2cn1` (single isomer, unassigned) [Compound 712], for which the figures for the IC50 in experiment [1] (procedure of Example 24) and in experiment [2] (procedure of Example 24) were 100 to 1000 nM and 1000 to 30000 nM, respectively.

Turning to `CC(=O)N1CCc2nc(N3CCC(Oc4ccc(F)cc4F)CC3)c(-c3ccc(=O)n(C)c3)nc2C1` [Compound 21, 5-{6-acetyl-2-[4-(2,4-difluorophenoxy)piperidin-1-yl]-5H,6H,7H,8H-pyrido[3,4-b]pyrazin-3-yl}-1-methyl-1,2-dihydropyridin-2-one], the IC50 in experiment [1] (setting [3]) and in experiment [2] (setting [3]) was 1000 to 30000 nM throughout.

For `COC(CO)c1cc2nc(N3CCC(Oc4ccc(F)cc4F)CC3)c(-c3cnn(C)c3)nc2cn1` (stereo not shown) [Compound 438, 2-(2-(4-(2,4-difluorophenoxy)piperidin-1-yl)-3-(1-methyl-1H-pyrazol-4-yl)pyrido[3,4-b]pyrazin-7-yl)-2-methoxyethan-1-ol], the values for the IC50 in experiment [1] (setting [4]) and in experiment [2] (setting [5]) were 100 to 1000 nM and 1000 to 30000 nM, respectively.

On to `CCn1ccc(-c2nc3c(nc2N2CCC(Oc4ccc(F)cc4F)CC2)CCN(C(C)=O)C3)n1` [Compound 448, 1-{2-[4-(2,4-difluorophenoxy)piperidin-1-yl]-3-(1-ethyl-1H-pyrazol-3-yl)-5H,6H,7H,8H-pyrido[3,4-b]pyrazin-6-yl}ethan-1-one], for which the IC50 in experiment [1] (setting [4]) lay in the range of 100 to 1000 nM; in experiment [2] (setting [5]), 1000 to 30000 nM.

With `CC(C)(O)C(=O)c1cc2nc(-c3cnn(C(F)F)c3)c(N3CCN(Cc4ccc(F)cc4F)CC3)nc2cn1` [Compound 620, 1-{2-[1-(difluoromethyl)-4-pyrazolyl]-3-{4-[(2,4-difluorophenyl)methyl]-1-piperazinyl}-1,4,6-triaza-7-naphthyl}-2-hydroxy-2-methyl-1-propanone], the IC50 in experiment [1] (procedure of Example 24) and in experiment [2] (procedure of Example 24) was 100 to 1000 nM in each case.

`Fc1ccc(F)c(CN2CCN(c3nc4cnc(-c5cnn(C(F)F)c5)cc4nc3-c3cnn(C(F)F)c3)CC2)c1` [Compound 774, 2,7-bis [1-(difluoromethyl)-4-pyrazolyl]-3-{4-[(2,5-difluorophenyl)methyl]-1-piperazinyl}-1,4,6-triazanaphthalene]: the half-inhibitory concentration (IC50) in experiment [1] (procedure of Example 24) and in experiment [2] (procedure of Example 24) was 1000 to 30000 nM in each case.

`CC(=O)N1CCc2nc(N3CCN(Cc4ccc(C#N)cc4F)CC3)c(-c3cnn(C)c3)nc2C1` [Compound 356, 4-({4-[6-acetyl-3-(1-methyl-1H-pyrazol-4-yl)-5H,6H,7H,8H-pyrido[3,4-b]pyrazin-2-yl]piperazin-1-yl}methyl)-3-fluorobenzonitrile]: the half-maximal inhibitory concentration (IC50) in experiment [1] (procedure of Example 24) and in experiment [2] (procedure of Example 24) was 1000 to 30000 nM throughout.

As for `CC(=O)N1CCc2nc(N3CCN(Cc4ccoc4)CC3)c(-c3cnn(C)c3)nc2C1` [Compound 529, 1-(2-{4-[(3-furyl)methyl]-1-piperazinyl}-3-(1-methyl-4-pyrazolyl)-5,6,7,8-tetrahydro-1,4,6-triaza-6-naphthyl)-1-ethanone], the half-inhibitory concentration (IC50) was 1000 to 30000 nM in experiment [1] (setting [6]) and at least 30000 nM in experiment [2] (setting [7]).

`CC(C)(O)C(=O)c1cncc2nc(-c3cnn(C(F)F)c3)c(N3CCN(Cc4ccc(F)cc4F)CC3)nc12` [Compound 693, 1-{3-[1-(difluoromethyl)-4-pyrazolyl]-2-{4-[(2,4-difluorophenyl)methyl]-1-piperazinyl}-1,4,6-triaza-8-naphthyl}-2-hydroxy-2-methyl-1-propanone]: the values for the IC50 in experiment [1] (procedure of Example 24) and in experiment [2] (procedure of Example 24) were 1000 to 30000 nM and at least 30000 nM, respectively.

With `CCn1cc(-c2nc3c(nc2N2CCC(Oc4ccc(F)cc4F)CC2)CCN(C(=O)C(O)C(C)(C)O)C3)cn1` (stereo not shown) [Compound 521, 1-{2-[4-(2,4-difluorophenoxy)-1-piperidyl]-3-(1-ethyl-4-pyrazolyl)-5,6,7,8-tetrahydro-1,4,6-triaza-6-naphthyl}-2,3-dihydroxy-3-methyl-1-butanone], the concentration for half-maximal inhibition (IC50) in experiment [1] (setting [6]) fell in the range of 100 to 1000 nM; in experiment [2] (setting [7]) it was 1000 to 30000 nM.

On to `COCC(=O)N1CCc2nc(N3CCC(Oc4ccc(F)cc4F)CC3)c(-c3cnn(C4CCCCO4)c3)nc2C1` (stereo not shown) [Compound 201, 1-{2-[4-(2,4-difluorophenoxy)piperidin-1-yl]-3-[1-(oxan-2-yl)-1H-pyrazol-4-yl]-5H,6H,7H,8H-pyrido[3,4-b]pyrazin-6-yl}-2-methoxyethan-1-one], for which the IC50 in experiment [1] (setting [4]) and in experiment [2] (setting [5]) was 1000 to 30000 nM in each case.

As for `CC(=O)N1CCc2nc(N3CCC(Oc4ccc(F)cc4F)CC3)c(-c3cnn4c3CNCC4)nc2C1` [Compound 108, 1-{2-[4-(2,4-difluorophenoxy)piperidin-1-yl]-3-{4H,5H,6H,7H-pyrazolo[1,5-a]pyrazin-3-yl}-5H,6H,7H,8H-pyrido[3,4-b]pyrazin-6-yl}ethan-1-one], the IC50 in experiment [1] (setting [4]) and in experiment [2] (setting [5]) was 1000 to 30000 nM each time.

Regarding `CC(C)(O)[C@@](C)(O)c1cc2nc(-c3cnn(C4CC4)c3)c(N3CCN(Cc4ccc(F)cc4F)CC3)nc2cn1` (single isomer, unassigned) [Compound 682], the IC50 in experiment [1] (procedure of Example 24) was below 100 nM; in experiment [2] (procedure of Example 24), 1000 to 30000 nM.

As to `CC(C)(O)[C@@](C)(O)c1cc2nc(-c3cnn(C4CC4)c3)c(N3CCN(Cc4ccccc4F)CC3)nc2cn1` (single isomer, unassigned) [Compound 776], the values for the IC50 in experiment [1] (procedure of Example 24) and in experiment [2] (procedure of Example 24) were 100 to 1000 nM and 1000 to 30000 nM, respectively.

In the case of `CCn1cc(-c2nc3c(nc2N2CCC(Oc4ccc(F)cc4F)CC2)CCN(C(=O)C2COC2)C3)cn1` [Compound 366, 4-(2,4-difluorophenoxy)-1-[3-(1-ethyl-1H-pyrazol-4-yl)-6-(oxetane-3-carbonyl)-5H,6H,7H,8H-pyrido[3,4-b]pyrazin-2-yl]piperidine], the IC50 in experiment [1] (procedure of Example 24) fell in the range of 100 to 1000 nM; in experiment [2] (procedure of Example 24), 1000 to 30000 nM.

Consider `Fc1ccc(CN2CCN(c3nc4ccncc4nc3-c3cn[nH]c3)CC2)c(F)c1` [Compound 52, 1-[(2,4-difluorophenyl)methyl]-4-[3-(1H-pyrazol-4-yl)pyrido[3,4-b]pyrazin-2-yl]piperazine], for which the IC50 in experiment [1] (setting [3]) was 100 to 1000 nM; in experiment [2] (setting [3]) it was 1000 to 30000 nM.

Turning to `CC(C)(O)C(C)(O)c1cc2nc(-c3cnn(C4CC4)c3)c(N3CCN(Cc4ccc(F)cc4F)CC3)nc2cn1` (stereo not shown) [Compound 653, 2-[2-(1-cyclopropyl-4-pyrazolyl)-3-{4-[(2,4-difluorophenyl)methyl]-1-piperazinyl}-1,4,6-triaza-7-naphthyl]-3-methyl-2,3-butanediol], the results for the IC50 in experiment [1] (procedure of Example 24) and in experiment [2] (procedure of Example 24) were 100 to 1000 nM and 1000 to 30000 nM, respectively.

For `CC(=O)N1CCc2nc(N3CCC(Oc4ccc(Br)cn4)CC3)c(-c3cnn(C)c3)nc2C1` [Compound 513, 1-{2-[4-(5-bromo-2-pyridyloxy)-1-piperidyl]-3-(1-methyl-4-pyrazolyl)-5,6,7,8-tetrahydro-1,4,6-triaza-6-naphthyl}-1-ethanone], the IC50 in experiment [1] (setting [6]) and in experiment [2] (setting [7]) was 1000 to 30000 nM each time.

For the compound `CC(=O)N1CCc2nc(N3CCN(Cc4ccccc4Cl)CC3)c(-c3cnn(C)c3)nc2C1` [Compound 507, 1-(2-{4-[(o-chlorophenyl)methyl]-1-piperazinyl}-3-(1-methyl-4-pyrazolyl)-5,6,7,8-tetrahydro-1,4,6-triaza-6-naphthyl)-1-ethanone], the results for the IC50 in experiment [1] (setting [6]) and in experiment [2] (setting [7]) were 100 to 1000 nM and 1000 to 30000 nM, respectively.

Turning to `CC(C)(O)[C@@](C)(O)c1cc2nc(-c3cnn(CF)c3)c(N3CCN(Cc4ccc(F)cc4F)CC3)nc2cn1` (single isomer, unassigned) [Compound 711], the IC50 fell in the range of 100 to 1000 nM in experiment [1] (procedure of Example 24) and 1000 to 30000 nM in experiment [2] (procedure of Example 24).

As to `Fc1ccc(NC2CCN(c3nc4ccncc4nc3-c3cn[nH]c3)CC2)c(F)c1` [Compound 35, 1-(3-(1H-pyrazol-4-yl)pyrido[3,4-b]pyrazin-2-yl)-N-(2,4-difluorophenyl)piperidin-4-amine], the IC50 in experiment [1] (setting [3]) and in experiment [2] (setting [3]) was 1000 to 30000 nM throughout.

Consider `COc1ccc(OC2CCN(c3nc4c(nc3-c3cnn(C)c3)CN(C(C)=O)CC4)CC2)c(F)c1` [Compound 452, 1-{2-[4-(2-fluoro-4-methoxyphenoxy)piperidin-1-yl]-3-(1-methyl-1H-pyrazol-4-yl)-5H,6H,7H,8H-pyrido[3,4-b]pyrazin-6-yl}ethan-1-one], for which the results for the IC50 in experiment [1] (setting [4]) and in experiment [2] (setting [5]) were 100 to 1000 nM and 1000 to 30000 nM, respectively.

As to `CC(=O)N1CCc2nc(C3=CCC(Oc4ccc(F)cc4F)CC3)c(-c3ncco3)nc2C1` (stereo not shown) [Compound 303, 1-{2-[4-(2,4-difluorophenoxy)cyclohex-1-en-1-yl]-3-(1,3-oxazol-2-yl)-5H,6H,7H,8H-pyrido[3,4-b]pyrazin-6-yl}ethan-1-one], the IC50 in experiment [1] (procedure of Example 24) and in experiment [2] (procedure of Example 24) was at least 30000 nM throughout.

With `CC(=O)N1CCc2nc(N3CCC(Oc4ccc(F)cc4F)CC3)c(-c3cccc(OC4CCOC4)n3)nc2C1` (stereo not shown) [Compound 61, 1-{2-[4-(2,4-difluorophenoxy)piperidin-1-yl]-3-[6-(oxolan-3-yloxy)pyridin-2-yl]-5H,6H,7H,8H-pyrido[3,4-b]pyrazin-6-yl}ethan-1-one], the IC50 in experiment [1] (setting [4]) and in experiment [2] (setting [5]) was 1000 to 30000 nM in each case.

In the case of `CC(=O)N1CCc2nc(N3CCC(Oc4cc(F)cc(F)c4)CC3)c(-c3cnn(C)c3)nc2C1` [Compound 431, 1-{2-[4-(3,5-difluorophenoxy)piperidin-1-yl]-3-(1-methyl-1H-pyrazol-4-yl)-5H,6H,7H,8H-pyrido[3,4-b]pyrazin-6-yl}ethan-1-one], the IC50 in experiment [1] (setting [4]) and in experiment [2] (setting [5]) was 1000 to 30000 nM throughout.
